# Experimental data from patent US10913736B2 (UNIVERSITY OF WASHINGTON, priority 2014, dated 2021).
# Where “and” joins values, the source holds several entries; their conditions need not be identical. Equal entries are not always repeated. Where two headings read alike, the source gives them in different places.
# Columns and labels:
# MetRS (T. brucei) = MetRS (T. brucei) (Trypanosoma brucei brucei, UniProt Q38C91); assay: MetRS (T. brucei) ATP depletion assay using Kinase-Glo; assay type: biochemical
# Chain of MetRS (T. brucei) (Q38C91 entry or part of it): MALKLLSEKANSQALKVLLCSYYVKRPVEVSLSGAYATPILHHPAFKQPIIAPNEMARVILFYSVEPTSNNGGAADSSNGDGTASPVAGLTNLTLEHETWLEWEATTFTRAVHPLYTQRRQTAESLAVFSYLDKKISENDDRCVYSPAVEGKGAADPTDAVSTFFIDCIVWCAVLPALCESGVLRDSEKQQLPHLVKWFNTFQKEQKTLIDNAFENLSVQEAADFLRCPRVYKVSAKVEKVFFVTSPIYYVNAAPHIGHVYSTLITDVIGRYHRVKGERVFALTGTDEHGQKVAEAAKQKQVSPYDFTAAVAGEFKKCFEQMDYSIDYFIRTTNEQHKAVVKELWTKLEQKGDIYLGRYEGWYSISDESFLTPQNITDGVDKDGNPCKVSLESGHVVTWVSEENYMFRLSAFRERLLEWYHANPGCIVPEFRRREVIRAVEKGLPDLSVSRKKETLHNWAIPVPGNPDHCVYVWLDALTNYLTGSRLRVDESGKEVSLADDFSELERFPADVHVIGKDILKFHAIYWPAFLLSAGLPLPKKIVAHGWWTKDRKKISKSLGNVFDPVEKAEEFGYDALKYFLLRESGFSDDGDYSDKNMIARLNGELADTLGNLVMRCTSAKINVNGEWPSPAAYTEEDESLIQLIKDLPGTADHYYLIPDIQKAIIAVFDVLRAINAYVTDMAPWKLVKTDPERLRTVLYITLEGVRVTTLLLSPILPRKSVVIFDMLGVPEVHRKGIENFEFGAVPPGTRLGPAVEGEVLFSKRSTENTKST
# T. brucei = assay: Growth inhibition assay of T. brucei cell cultures (Alamar Blue, 48 h); assay type: cell-based
# T. cruzi = T. cruzi growth inhibition EC50; assay type: cell-based; conditions: Trypanosoma cruzi; read-out: C) T. cruzi EC50
# MetRS (S. aureus) = MetRS (S. aureus) (Staphylococcus aureus, UniProt Q5HII6); assay: biochemical; conditions: ATP depletion, Kinase-Glo; read-out: H) MetRS (S. aureus) ATP depletion assay using Kinase-Glo with modified cpd dilution method, IC50
# Chain of MetRS (S. aureus) (Q5HII6 whole entry): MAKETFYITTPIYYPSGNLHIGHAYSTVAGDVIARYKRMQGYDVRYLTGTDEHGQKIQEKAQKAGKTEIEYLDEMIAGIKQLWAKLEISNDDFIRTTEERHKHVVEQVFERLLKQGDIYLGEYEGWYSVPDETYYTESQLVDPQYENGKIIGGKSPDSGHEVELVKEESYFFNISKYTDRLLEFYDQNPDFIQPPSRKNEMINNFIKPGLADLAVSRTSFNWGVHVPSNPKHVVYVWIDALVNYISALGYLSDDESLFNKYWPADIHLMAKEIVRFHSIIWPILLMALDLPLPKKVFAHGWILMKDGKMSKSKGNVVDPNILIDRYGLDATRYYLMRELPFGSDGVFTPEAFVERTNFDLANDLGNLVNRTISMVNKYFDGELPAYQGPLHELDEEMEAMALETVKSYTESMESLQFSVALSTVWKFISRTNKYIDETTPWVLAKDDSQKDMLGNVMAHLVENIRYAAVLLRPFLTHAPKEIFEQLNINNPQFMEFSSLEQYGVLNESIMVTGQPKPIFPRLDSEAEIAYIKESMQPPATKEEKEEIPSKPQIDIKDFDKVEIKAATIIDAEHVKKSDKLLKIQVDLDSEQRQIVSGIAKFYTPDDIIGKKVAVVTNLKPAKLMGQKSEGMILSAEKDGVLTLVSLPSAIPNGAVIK
# [1] = Trypanosoma brucei; read-out: B) T. brucei EC50
Structure (SMILES),IC50 (MetRS (T. brucei)),EC50 (T. brucei; [1]),EC50 (T. cruzi),EC50 (T. brucei; read-out: B) T. brucei EC50),IC50 (MetRS (S. aureus))
"Cc1ccc2[nH]c(NCCCNCc3cc(Cl)cc(Cl)c3)nc2n1 [Compound 1599, N1-(3,5-dichlorobenzyl)-N3-(5-methyl-1H-imidazo[4,5-b]pyridin-2-yl)propane-1,3-diamine]",45 nM and 59 nM,662 nM,2910 nM,,
"N#Cc1c(NCCCNCc2cc(Cl)cc(Cl)c2)[nH]c2cccnc12 [Compound 1627, 2-(3-(3,5-dichlorobenzylamino)propylamino)-1H-pyrrolo[3,2-b]pyridine-3-carbonitrile]",61 nM,> 9.08 nM,623 nM,4.6 nM,
"OC(CNCc1cc(Cl)cc(Cl)c1)CNc1nc2cccnc2[nH]1 (stereo not drawn) [Compound 1634, 1-((1H-imidazo[4,5-b]pyridin-2-yl)amino)-3-((3,5-dichlorobenzyl)amino)propan-2-ol]",133 nM,121 nM,9760 nM,,
"O=C1N[C@@H](Cc2ccc(Cl)cc2Cl)C(=O)N1Cc1nc2ccccc2[nH]1 [Compound 1754, (S)-3-((1H-benzo[d]imidazol-2-yl)methyl)-5-(2,4-dichlorobenzyl)imidazolidine-2,4-dione]",> 10000 nM,5890 nM,> 5000 nM,,
"NN(C(=O)/C=C/Oc1ccc(Cl)cc1Cl)c1nc2ccccc2[nH]1 [Compound 1766, (2E)-N-(1H-1,3-benzodiazol-2-yl)-3-(2,4-dichlorophenoxy)prop-2-enehydrazide]",297 nM,3530 nM,> 5000 nM,,
"Clc1cc(Cl)cc(CNC2CCCC(c3nc4nc(Cl)ccc4[nH]3)C2)c1 (stereo not drawn) [Compound 1788, 3-(5-chloro-1H-imidazo[4,5-b]pyridin-2-yl)-N-(3,5-dichlorobenzyl)cyclohexanamine]",124 nM,359 nM,4170 nM,,
"CC(=O)N(Cc1cc(Cl)cc(Cl)c1)C1CCCC(c2nc3nc(Cl)ccc3[nH]2)C1 (stereo not drawn) [Compound 1789, N-(3-(5-chloro-1H-imidazo[4,5-b]pyridin-2-yl)cyclohexyl)-N-(3,5-dichlorobenzyl)acetamide]",89 nM,2810 nM,4990 nM,,
"CC(Cc1nc2ccc(Cl)cc2[nH]1)NCc1cc(Cl)cc(Cl)c1 (stereo not drawn) [Compound 1794, [1-(5-chloro-1H-1,3-benzodiazol-2-yl)propan-2-yl][(3,5-dichlorophenyl)methyl]amine]",31 nM and 17 nM and 72 nM and 70 nM,1330 nM,5230 nM,1870 nM and 1840 nM,22600 nM
"CC(=O)N(Cc1cc(Cl)cc(Cl)c1)C1CCCC(c2nc3nc(F)ccc3[nH]2)C1 (stereo not drawn) [Compound 1801, N-(3,5-dichlorobenzyl)-N-(3-(5-fluoro-1H-imidazo[4,5-b]pyridin-2-yl)cyclohexyl)acetamide]",533 nM and 569 nM,,252 nM,,
"C[C@@H](Cc1nc2ccc(Cl)cc2[nH]1)NCc1cc(Cl)cc(Cl)c1 [Compound 1805, [(2S)-1-(6-chloro-1H-1,3-benzodiazol-2-yl)propan-2-yl][(3,5-dichlorophenyl)methyl]amine]",56 nM and 27 nM,1690 nM,5610 nM,,> 1000 nM
"Clc1ccc(CNC2CCCC(c3nc4nc(Cl)ccc4[nH]3)C2)c(Cl)c1 (stereo not drawn) [Compound 1809, 3-(5-chloro-1H-imidazo[4,5-b]pyridin-2-yl)-N-(2,4-dichlorobenzyl) cyclohexanamine]",43 nM,821 nM,3460 nM,,
"Clc1cc(Cl)cc(CNC2CCCN(c3nc4nc(Cl)ccc4[nH]3)C2)c1 (stereo not drawn) [Compound 1811, 1-(5-chloro-1H-imidazo[4,5-b]pyridin-2-yl)-N-(3,5-dichlorobenzyl) piperidin-3-amine]",8 nM,81.8 nM,2510 nM,,709 nM
"Clc1cc(Cl)cc(CNCCNc2nc3ccc(Cl)cc3[nH]2)c1 [Compound 1829, {2-[(6-chloro-1H-1,3-benzodiazol-2-yl)amino]ethyl}[(3,5-dichlorophenyl)methyl]amine]",85 nM,539 nM,3040 nM,,
"CC(=O)N(CCCc1nc2nc(F)ccc2[nH]1)Cc1cc(Cl)cc(Cl)c1 [Compound 1835, N-(3,5-dichlorobenzyl)-N-(3-(5-fluoro-1H-imidazo[4,5-b]pyridin-2-yl)propyl)acetamide]",23 nM,873 nM,> 20000 nM,,
"Clc1cc(Cl)cc(CNCCc2nc3ncc(Cl)cc3[nH]2)c1 [Compound 1844, (2-{6-chloro-3H-imidazo[4,5-b]pyridin-2-yl}ethyl)[(3,5-dichlorophenyl)methyl]amine]",60 nM,598 nM,5420 nM,,
"Clc1cc(Cl)cc(CNCCNc2nc3ccc(Cl)nc3[nH]2)c1 [Compound 1849, [2-({5-chloro-3H-imidazo[4,5-b]pyridin-2-yl}amino)ethyl][(3,5-dichlorophenyl)methyl]amine]",33 nM,60.7 nM,1810 nM,,3110 nM

Structure (SMILES),IC50 (MetRS (T. brucei)),EC50 (T. brucei; [1]),EC50 (T. cruzi),EC50 (T. brucei; read-out: B) T. brucei EC50),IC50 (MetRS (S. aureus))
"Clc1cc(Cl)cc(NCC2CCCN(c3nc4nc(Cl)ccc4[nH]3)C2)c1 (stereo not drawn) [Compound 1862, 3,5-dichloro-N-((1-(5-chloro-1H-imidazo[4,5-b]pyridin-2-yl)piperidin-3-yl)methyl)aniline]",31 nM,343 nM,4920 nM,,754 nM
"Clc1ccc2[nH]c([C@H]3CCCN(Cc4ccc(Cl)c(Cl)c4)C3)nc2n1 [Compound 1870, (S)-5-chloro-2-(1-(3,4-dichlorobenzyl)piperidin-3-yl)-1H-imidazo[4,5-b]pyridine]",54 nM,458 nM,2610 nM,,837 nM
"O=C(Cc1cc(Cl)cc(Cl)c1)NCc1nc2ccc(Cl)nc2[nH]1 [Compound 1875, N-({5-chloro-3H-imidazo[4,5-b]pyridin-2-yl}methyl)-2-(3,5-dichlorophenyl)acetamide]",38 nM,1900 nM,13100 nM,,
"Clc1cc(Cl)cc(CNCCCc2nc3ccc(Cl)nc3[nH]2)c1 [Compound 1881, (3-{5-chloro-3H-imidazo[4,5-b]pyridin-2-yl}propyl)[(3,5-dichlorophenyl)methyl]amine]",35 nM,307 nM,5870 nM,,
"Clc1cc(Cl)c2c(c1)C(N[C@H]1CCCN(c3nc4nc(Cl)ccc4[nH]3)C1)CCN2 (stereo partly drawn) [Compound 1899, 6,8-dichloro-N—((S)-1-(5-chloro-1H-imidazo[4,5-b]pyridin-2-yl)piperidin-3-yl)-1,2,3,4-tetrahydroquinolin-4-amine]",89 nM,,260 nM,,323 nM
"CC(=O)N(CCN(C)c1nc2nc(Cl)ccc2[nH]1)[C@@H]1CCNc2c(Cl)cc(Cl)cc21 [Compound 1938, N-[2-({5-chloro-3H-imidazo[4,5-b]pyridin-2-yl}(methyl)amino)ethyl]-N-[(4R)-6,8-dichloro-1,2,3,4-tetrahydroquinolin-4-yl]acetamide]",36 nM,,266 nM,,1260 nM
"CN(CCN(CCN(C)c1nc2nc(F)ccc2[nH]1)[C@@H]1CCNc2c(Cl)cc(Cl)cc21)c1nc2nc(F)ccc2[nH]1 [Compound 1939, (R)—N1-(6,8-dichloro-1,2,3,4-tetrahydroquinolin-4-yl)-N2-(5-fluoro-1H-imidazo[4,5-b]pyridin-2-yl)-N1-(2-((5-fluoro-1H-imidazo[4,5-b]pyridin-2-yl)(methyl)amino)ethyl)-N2-methylethane-1,2-diamine]",73 nM,,176 nM,,271 nM
"CC(=O)N(CCCNc1nc2ccc(F)nc2[nH]1)Cc1cc(Cl)cc(Cl)c1 [Compound 1959, N-(3,5-dichlorobenzyl)-N-(3-(5-fluoro-3H-imidazo[4,5-b]pyridin-2-ylamino)propyl)acetamide]",16 nM,39.3 nM,,51.1 nM,12 nM
"O=c1[nH]c(Cc2ccc(Cl)cc2Cl)cn1Cc1nc2ccc(F)nc2[nH]1 [Compound 1962, 5-(2,4-dichlorobenzyl)-3-((5-fluoro-3H-imidazo[4,5-b]pyridin-2-yl)methyl)-1H-imidazol-2(3H)-one]",19 nM,12.9 nM,,,17 nM
"COC(=O)N(CCN(C)c1nc2nc(Cl)ccc2[nH]1)Cc1cc(Cl)cc(Cl)c1 [Compound 1963, methyl 3,5-dichlorobenzyl2-(5-chloro-N-methyl-1H-imidazo[4,5-b]pyridin-2-ylamino)ethylcarbamate]",21 nM,97.4 nM,,,348 nM
"Clc1cc(Cl)cc(CNc2cccc(-c3nc4ccc(Cl)nc4[nH]3)c2)c1 [Compound 1966, 3-{5-chloro-3H-imidazo[4,5-b]pyridin-2-yl}-N-[(3,5-dichlorophenyl)methyl]amine]",72 nM,1030 nM,,,5730 nM
Clc1cc(Cl)cc(NCCCNc2nc3ccc(Cl)nc3[nH]2)c1 [Compound 1967],88 nM,2300 nM,,,> 1000 nM
"O=C(CNc1nc2ccc(Cl)nc2[nH]1)NCc1cc(Cl)cc(Cl)c1 [Compound 1970, 2-((5-chloro-3H-imidazo[4,5-b]pyridin-2-yl)amino)-N-(3,5-dichlorobenzyl)acetamide]",69 nM,2980 nM,,,1080 nM
"CN(CCN(Cc1cc(Cl)cc(Cl)c1)C(=O)CO)c1nc2ccc(Cl)nc2[nH]1 [Compound 1971, N-(3,5-dichlorobenzyl)-N-(2-(5-chloro-N-methyl-1H-imidazo[4,5-b]pyridin-2-ylamino)ethyl)-2-hydroxyacetamide]",13 nM,62.3 nM,,40.4 nM,85 nM
"N#Cc1cc(Cl)cc(CN[C@H]2CCCN(c3nc4nc(Cl)ccc4[nH]3)C2)c1 [Compound 1992, (S)-3-chloro-5-(((1-(5-chloro-1H-imidazo[4,5-b]pyridin-2-yl)piperidin-3-yl)amino)methyl)benzonitrile]",14 nM,111 nM,2130 nM,,
